# In US11629171B2, “Beta-hairpin peptidomimetics” (POLYPHOR AG, priority 2017, dated 2023):
# Where a SMILES comes first, the peptide text is derived from it. Bridges are numbered along the chain shown (N, C = ends). Roman numbers before positions name the chains, in order. [ ]: non-standard residue; d: D form. Thr(ol) = C[C@@H](O)[C@H](N)CO; Tle = CC(C)(C)[C@H](N)C(=O)O; Hiv = CC(C)[C@H](O)C(=O)O; dDab = NCC[C@@H](N)C(=O)O; hSer = N[C@@H](CCO)C(=O)O; Dab = NCC[C@H](N)C(=O)O; Dap = NC[C@H](N)C(=O)O; Mpa = O=C(O)CCS
# How the values were obtained:
# Format in all cases: cell-based
# [1] = system: human red blood cells (hRBC); experiment: Hemolysis; conditions: red cells of human, 1 h, 200
# Method in brief: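 Hemoglobin release from PBS-washed hRBC at 20% (v/v), incubated 1 h at 37° C with peptides at 200 μg/mL, is measured at 540 nm. Values are blank corrected and given as a fraction of Triton X-100 lysis × 100%.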
# [2] = system: Enterobacter cloacae 848840; conditions: 848840
# Method in brief: (§1)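 Two-fold peptide dilutions in polysorbate 80-containing (0.002% final) cation-adjusted Mueller-Hinton II broth were inoculated with about 10^6 CFU/mL. The MIC was taken as the lowest concentration, in μg/mL, preventing visible growth at 18-20 hours and 35° C.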
# [3] = system: Acinetobacter baumannii DSM 30008; conditions: DSM 30008
# Method in brief: as §1
# [4] = system: Pseudomonas aeruginosa ATCC 27853; conditions: ATCC 27853
# Method in brief: as §1
# [5] = system: Klebsiella pneumoniae SSI #3010; conditions: SSI #3010
# Method in brief: as §1
# Escherichia coli 926415 = conditions: 926415
# Method in brief: as §1
# [6] = system: Klebsiella pneumoniae 968733; conditions: 968733
# Method in brief: as §1
# [7] = system: Escherichia coli ATCC 25922; conditions: ATCC 25922
# Method in brief: as §1
# [8] = system: Acinetobacter baumannii 872842; conditions: 872842
# Method in brief: as §1
Compound,MIC [2] [µg/mL],MIC [3] [µg/mL],MIC [4] [µg/mL],MIC [5] [µg/mL],MIC (Escherichia coli 926415) [µg/mL],MIC [6] [µg/mL],MIC [7] [µg/mL],MIC [8] [µg/mL],Acinetobacter baumannii DSM 30008 MIC [3] [µg/mL],Pseudomonas aeruginosa ATCC 27853 MIC [4] [µg/mL],Klebsiella pneumoniae SSI #3010 MIC [5] [µg/mL],Escherichia coli ATCC 25922 MIC [7] [µg/mL],Hemolysis at 200 μg/mL [1] [%]
CC(=O)N[C@@H](C(=O)N[C@H]1CSSC[C@@H](C(=O)N[C@H](CO)[C@@H](C)O)NC(=O)[C@H](C(C)(C)C)NC(=O)[C@H](CO)NC(=O)[C@H](Cc2c[nH]c3ccccc23)NC(=O)[C@H](CCO)NC(=O)[C@@H](CCN)NC(=O)[C@H](CCC(=O)N[C@@H](CCN)C(=O)N[C@H](C(=O)N[C@@H](CCN)C(=O)N[C@H]2CCNC(=O)[C@H]([C@@H](C)O)NC(=O)[C@H](CCN)NC(=O)[C@H](CCN)NC(=O)[C@H](CC(C)C)NC(=O)[C@@H](CC(C)C)NC(=O)[C@H](CCN)NC2=O)[C@@H](C)O)NC(=O)[C@H](CCN)NC(=O)[C@H](Cc2ccc(O)cc2)NC1=O)C(C)C [Ex. 86] (I: Ac-[dV]CY[Dab]E[dDab][hSer]WS[Tle]C[Thr(ol)] / II: [Dab]T[Dab][Dab][Dab][dL]L[Dab][Dab]T; disulfide I:2-I:11; amide I:5-II:N; lactam II:4-II:C),1,0.0625,0.125,0.125,0.25,0.125,0.125,0.25,,,,,<1
CC(C)C[C@@H]1NC(=O)[C@@H](CC(C)C)NC(=O)[C@H](CCN)NC(=O)[C@@H](NC(=O)[C@H](CCN)NC(=O)[C@@H](NC(=O)[C@H](CCN)NC(=O)CC[C@@H]2NC(=O)[C@H](CCN)NC(=O)[C@H](Cc3ccc(O)cc3)NC(=O)[C@@H](NC(=O)[C@@H](O)C(C)C)CSSC[C@@H](C(=O)N[C@H](CO)[C@@H](C)O)NC(=O)[C@H](C(C)(C)C)NC(=O)[C@H]([C@@H](C)O)NC(=O)[C@H](Cc3c[nH]c4ccccc34)NC(=O)[C@H](CCO)NC(=O)[C@@H](CCN)NC2=O)[C@@H](C)O)CCNC(=O)[C@H]([C@@H](C)O)NC(=O)[C@H](CCN)NC(=O)[C@H](CCN)NC1=O [Ex. 76] (I: H-[Hiv]CY[Dab]E[dDab][hSer]WT[Tle]C[Thr(ol)] / II: [Dab]T[Dab][Dab][Dab][dL]L[Dab][Dab]T; disulfide I:2-I:11; amide I:5-II:N; lactam II:4-II:C),0.125,0.0625,0.25,0.125,0.125,0.125,0.0625,0.25,,,,,1
"CC(=O)N[C@H](C(=O)N[C@H]1CCNC(=O)[C@@H]([C@H](C)O)NC(=O)[C@H](C(C)(C)C)NC(=O)[C@H](CO)NC(=O)[C@H](Cc2c[nH]c3ccccc23)NC(=O)[C@H](CCO)NC(=O)[C@@H](CCN)NC(=O)[C@H](CCC(=O)N[C@@H](CCN)C(=O)N[C@H](C(=O)N[C@@H](CN)C(=O)N[C@H]2CCNC(=O)[C@H]([C@@H](C)O)NC(=O)[C@H](CCN)NC(=O)[C@H](CCN)NC(=O)[C@H](CC(C)C)NC(=O)[C@@H](CC(C)C)NC(=O)[C@H](CCN)NC2=O)[C@@H](C)O)NC(=O)[C@H](CN)NC(=O)[C@H](Cc2ccc(O)cc2)NC1=O)C(C)C [Ex. 35] (I: Ac-V[Dab]Y[Dap]E[dDab][hSer]WS[Tle][dT] / II: [Dab]T[Dap][Dab][Dab][dL]L[Dab][Dab]T; lactam I:2-I:C, II:4-II:C; amide I:5-II:N)",0.25,0.125,0.25,0.25,1,0.25,0.125,0.25,,,,,<1

# Second part, led by results:
MIC [2] [µg/mL],MIC [3] [µg/mL],MIC [4] [µg/mL],MIC [5] [µg/mL],MIC (Escherichia coli 926415) [µg/mL],MIC [6] [µg/mL],MIC [7] [µg/mL],MIC [8] [µg/mL],Acinetobacter baumannii DSM 30008 MIC [3] [µg/mL],Pseudomonas aeruginosa ATCC 27853 MIC [4] [µg/mL],Klebsiella pneumoniae SSI #3010 MIC [5] [µg/mL],Escherichia coli ATCC 25922 MIC [7] [µg/mL],Compound,Hemolysis at 200 μg/mL [1] [%]
0.25,,,,0.125,0.125,,0.0625,0.03125,0.0625,0.0625,0.0625,CC(=O)N[C@H](C(=O)N[C@H]1CSSC[C@@H](C(=O)N[C@@H](CO)C(=O)N[C@@H](CC(N)=O)C(N)=O)NC(=O)[C@H](C(C)C)NC(=O)[C@H](CO)NC(=O)[C@H](Cc2c[nH]c3ccccc23)NC(=O)[C@H](CCN)NC(=O)[C@@H](CCN)NC(=O)[C@H](CCC(=O)N[C@@H](CCN)C(=O)N[C@H](C(=O)N[C@@H](CN)C(=O)N[C@H]2CCNC(=O)[C@H]([C@@H](C)O)NC(=O)[C@H](CCN)NC(=O)[C@H](CCN)NC(=O)[C@H](CC(C)C)NC(=O)[C@@H](CC(C)C)NC(=O)[C@H](CCN)NC2=O)[C@@H](C)O)NC(=O)[C@H](CO)NC(=O)[C@H](Cc2ccc(O)cc2)NC1=O)C(C)C [Ex. 373] (I: Ac-VCYSE[dDab][Dab]WSVCSN-NH2 / II: [Dab]T[Dap][Dab][Dab][dL]L[Dab][Dab]T; disulfide I:2-I:11; amide I:5-II:N; lactam II:4-II:C),<1
0.125,0.03125,0.25,0.125,0.125,0.25,0.0625,0.0625,,,,,CC(C)C[C@@H]1NC(=O)[C@@H](CC(C)C)NC(=O)[C@H](CCN)NC(=O)[C@@H](NC(=O)[C@H](CN)NC(=O)[C@@H](NC(=O)[C@H](CCN)NC(=O)CC[C@@H]2NC(=O)[C@H](CN)NC(=O)[C@H](Cc3ccc(O)cc3)NC(=O)[C@H]([C@@H](C)O)NC(=O)[C@H](C(C)C)NC(=O)CCSSC[C@@H](C(N)=O)NC(=O)[C@H](CO)NC(=O)[C@H](C)NC(=O)[C@H](C(C)(C)C)NC(=O)[C@H](CO)NC(=O)[C@H](Cc3c[nH]c4ccccc34)NC(=O)[C@H](CO)NC(=O)[C@@H](CCN)NC2=O)[C@@H](C)O)CCNC(=O)[C@H]([C@@H](C)O)NC(=O)[C@H](CCN)NC(=O)[C@H](CCN)NC1=O [Ex. 245] (I: [Mpa]VTY[Dap]E[dDab]SWS[Tle]ASC-NH2 / II: [Dab]T[Dap][Dab][Dab][dL]L[Dab][Dab]T; disulfide I:1-I:14; amide I:6-II:N; lactam II:4-II:C),1
0.0625,0.01562,0.0625,0.0625,0.03125,0.0625,0.01562,0.03125,,,,,CC(=O)N[C@H](C(=O)N[C@H]1CSSC[C@@H](C(=O)N[C@H](CO)[C@@H](C)O)NC(=O)[C@H](C(C)(C)C)NC(=O)[C@H](CO)NC(=O)[C@H](Cc2c[nH]c3ccccc23)NC(=O)[C@H](CO)NC(=O)[C@@H](CCN)NC(=O)[C@H](CCC(=O)N[C@@H](CCN)C(=O)N[C@H](C(=O)N[C@@H](CN)C(=O)N[C@H]2CCNC(=O)[C@H]([C@@H](C)O)NC(=O)[C@H](CCN)NC(=O)[C@H](CCN)NC(=O)[C@H](CC(C)C)NC(=O)[C@@H](CC(C)C)NC(=O)[C@H](CCN)NC2=O)[C@@H](C)O)NC(=O)[C@H](CN)NC(=O)[C@H](Cc2ccc(O)cc2)NC1=O)C(C)C [Ex. 123] (I: Ac-VCY[Dap]E[dDab]SWS[Tle]C[Thr(ol)] / II: [Dab]T[Dap][Dab][Dab][dL]L[Dab][Dab]T; disulfide I:2-I:11; amide I:5-II:N; lactam II:4-II:C),<1
1,0.125,0.125,0.25,1,4,0.0625,0.5,,,,,"CC(=O)N[C@H](C(=O)N[C@H]1CC(=O)NCC[C@@H](C(=O)N[C@@H](CO)C(N)=O)NC(=O)[C@H](C(C)C)NC(=O)[C@H](CO)NC(=O)[C@H](Cc2c[nH]c3ccccc23)NC(=O)CNC(=O)[C@@H](CCN)NC(=O)[C@H](CCC(=O)N[C@@H](CCN)C(=O)N[C@H](C(=O)N[C@@H](CN)C(=O)N[C@H]2CCNC(=O)[C@H]([C@@H](C)O)NC(=O)[C@H](CCN)NC(=O)[C@H](CCN)NC(=O)[C@H](CC(C)C)NC(=O)[C@@H](CC(C)C)NC(=O)[C@H](CCN)NC2=O)[C@@H](C)O)NC(=O)[C@H](CO)NC(=O)[C@H](Cc2ccc(O)cc2)NC1=O)C(C)C [Ex. 292] (I: Ac-VDYSE[dDab]GWSV[Dab]S-NH2 / II: [Dab]T[Dap][Dab][Dab][dL]L[Dab][Dab]T; lactam I:2-I:11, II:4-II:C; amide I:5-II:N)",<1
